The values that follow come from US6066642A, “Dihydropyridine-, pyridine-, benzopyran-4-one- and triazoloquinazoline derivative, their preparation and their use as adenosine receptor antagonists” (priority 1998, dated 2000).

Like-named read-outs stand apart in the source and are kept apart here.

For one assay, the target named is T1, A1 receptors (Rattus norvegicus, UniProt P25099).
T1 sequence (P25099 1-326): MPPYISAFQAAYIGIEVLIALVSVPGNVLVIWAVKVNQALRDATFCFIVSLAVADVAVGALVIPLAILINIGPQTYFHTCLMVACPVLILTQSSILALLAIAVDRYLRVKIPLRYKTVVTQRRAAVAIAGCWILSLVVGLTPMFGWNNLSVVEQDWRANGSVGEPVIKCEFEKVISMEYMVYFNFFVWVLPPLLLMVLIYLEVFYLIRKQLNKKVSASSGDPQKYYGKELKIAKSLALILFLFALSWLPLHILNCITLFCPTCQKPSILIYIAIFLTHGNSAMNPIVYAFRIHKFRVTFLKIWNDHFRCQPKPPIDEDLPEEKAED
Briefly: biochemical. The note with it: for Ki: [3H]PIA, rat brain membranes, read-out: Ki rA1; for inhibition at 100 µM: 10^-4 M; for greater affinity to A1 than A2a adenosine receptors: selectivity in words. The assay is classed as binding.

The target of another assay is T2, A2a receptors (Rattus norvegicus, UniProt P30543).
T2 construct: Displacement of specific [^3 H]; from tissue; host or cells: rat striatal membranes
T2 sequence (P30543 whole entry): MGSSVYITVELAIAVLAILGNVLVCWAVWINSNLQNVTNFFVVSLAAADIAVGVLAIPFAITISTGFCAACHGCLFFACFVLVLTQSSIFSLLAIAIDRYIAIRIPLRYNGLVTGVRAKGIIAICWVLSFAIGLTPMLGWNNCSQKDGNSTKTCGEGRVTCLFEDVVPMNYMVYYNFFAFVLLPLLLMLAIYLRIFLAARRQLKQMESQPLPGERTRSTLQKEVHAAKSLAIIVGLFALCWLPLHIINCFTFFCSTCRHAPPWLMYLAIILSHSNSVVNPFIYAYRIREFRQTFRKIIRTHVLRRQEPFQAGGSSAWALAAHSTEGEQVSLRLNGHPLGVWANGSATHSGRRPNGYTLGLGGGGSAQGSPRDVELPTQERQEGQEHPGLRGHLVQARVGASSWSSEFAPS
Kind of assay: radioligand binding, displacement of specific [3H]CGS 21680 binding in rat striatal membranes. The note with it: for inhibition at 100 µM: 10^-4 M; for Ki: [3H]CGS 21680, rat striatal membranes.

Setting [1] is: Table 11, read-out: % inhibition rA2A.
Setting [2] is: Table 11, read-out: displacement of specific binding rA1.
[3] abbreviates: Table 12, read-out: displacement of specific binding rA2A.
Setting [4] is: Table 12, read-out: % inhibition rA1.
Setting [5] is: Table 12, read-out: % inhibition rA2A.
[6] abbreviates: Table 12, read-out: displacement of specific binding rA1.

Description for A1 receptors: ^a Displacement of specific [^3 H] PIA binding in rat brain
percentage of specific binding displaced at 100 μM.
Description for A2a receptors: ^b Displacement of specific [^3 H]
or as a percentage of specific binding displaced at 100 μM.

As to `O=C1CC(c2ccccc2)Oc2ccccc21` (stereo not drawn) [Compound 12, flavanone, reference compound], the Ki (usually a dissociation constant, usually derived from enzyme kinetics or from competition with a known ligand) on A1 receptors (Table 4) is 32 ± 4.8 µM.

For `CCOC(=O)C1=C(C)NC(c2ccccc2)=C(C(=O)OCc2ccccc2)C1/C=C/c1ccccc1` (stereo not drawn) [Compound 99], the inhibition at 100 µM on A2a receptors (setting [1]) was 15%; on A1 receptors (Table 11, read-out: % inhibition rA1), 35 ± 3%. With `CCOC(=O)C1=C(c2ccccc2)NC(C)=C(C(=O)OCc2ccccc2)C1/C=C/c1ccc([N+](=O)[O-])cc1` (stereo not drawn) [Compound 106], the inhibition at 100 µM at A2a receptors (Table 11, read-out: displacement of specific binding rA2A) is less than 10%; on A1 receptors (setting [2]), less than 10%. Consider `CCOC(=O)C1=C(C)NC(C)=C(C(=O)OC)C1c1ccc([N+](=O)[O-])cc1` (racemic) [Compound 67, 3-methyl-5-ethyl-2,6-dimethyl-4-(4-nitrophenyl)-1,4(R,S)-dihydropyridine-3,5-dicarboxylate], for which the Ki at A2a receptors (Table 9, read-out: Ki rA2A) is 35.6 µM. Also, the inhibition at 100 µM at A1 receptors (Table 9, read-out: % of specific binding displaced rA1) worked out at 37 ± 14%. As for `CCOC(=O)C1=C(C)NC(c2ccccc2)=C(C(=O)OCC)C1C#Cc1cccc(C)c1` (racemic) [Compound 120, 3,5-Diethyl 2-methyl-4-(3-methylphenylethynyl)-6-phenyl-1,4-(±)-dihydropyridine-3,5-dicarboxylate], the inhibition at 100 µM is less than 10% on A2a receptors (setting [3]) and 41% on A1 receptors (setting [4]). Take `CCOC(=O)C1=C(C)NC(c2ccccc2)=C(C(=O)OCc2cccc([N+](=O)[O-])c2)C1C#Cc1ccccc1` (racemic) [Compound 122f, 3-Ethyl 5-(3-nitrobenzyl)-4-phenylethynyl-6-phenyl-1,4(±)-dihydropyridine-3,5-dicarboxylate]: the results for the inhibition at 100 µM at A2a receptors (setting [3]) and on A1 receptors (setting [4]) were less than 10% and 28 ± 2%, respectively. Regarding `COc1c2ccoc2cc2oc(C)cc(=O)c12` [Compound 17, 4-methoxy-7-methyl-5H-furo[3,2-g][1]-benzopyrano-5-one, reference compound], at A2a receptors (Table 5, read-out: Ki rA2a), the Ki is 42.4 ± 11.9 µM. Moreover, at A1 receptors (Table 5, read-out: % of specific binding displaced rA1), the inhibition at 100 µM was found to be 36 ± 3%.

Turning to `CCOC(=O)C1=C(C)NC(c2ccccc2)=C(C(=O)OCc2ccccc2C)C1C#Cc1ccccc1` (racemic) [Compound 122a], the inhibition at 100 µM came to 13% at A2a receptors (setting [5]) and 16 ± 1% at A1 receptors (setting [4]). On to `COC(=O)C1=C(C)NC(C)=C([N+](=O)[O-])C1c1ccccc1C(F)(F)F` (stereo not drawn) [Compound 69, reference compound], for which the “greater affinity to A1 than A2a adenosine receptors” value on A1 receptors is reported as “greater affinity to A1 adenosine receptors than A2a receptors”. With `CCOC(=O)C1=C(C)NC(c2ccccc2)=C(C(=O)OCc2ccc([N+](=O)[O-])cc2)C1C#Cc1ccccc1` (racemic) [Compound 122g], at A1 receptors (setting [4]), the inhibition at 100 µM was 29 ± 2%. `CCOC(=O)C1=C(c2ccccc2)NC(C)=C(C(=O)OCc2ccccc2)C1/C=C/c1ccccc1` (stereo not drawn) [Compound 105]: the results for the inhibition at 100 µM at A2a receptors (setting [1]) and at A1 receptors (setting [2]) were 16 ± 11% and less than 10%, respectively. In the case of `O=c1c(O)c(-c2ccc(O)cc2O)oc2cc(O)cc(O)c12` [Compound 5a, 2',3,4',5,7-pentahydroxyflavone, reference compound], the Ki on A2a receptors (Table 3, read-out: Ki rA2a) is 17.3 µM; on A1 receptors (Table 3) it was 13.8 µM. As to `CCCOC(=O)C1=C(C)NC(c2ccccc2)=C(C(=O)OCc2ccccc2)C1C#Cc1ccccc1` (racemic) [Compound 124, 3-Propyl 5-benzyl 2-methyl-4-phenylethynyl-6-phenyl-1,4-(±)-dihydropyridine-3,5-dicarboxylate], the inhibition at 100 µM came to 16% on A2a receptors (setting [5]) and 27 ± 7% at A1 receptors (setting [4]). With `CCOC(=O)C1=C(C)NC(c2ccccc2)=C(C(=O)OCc2ccccc2)C1C#Cc1ccccc1` (stereo not drawn) [Compound 121], the inhibition at 100 µM at A1 receptors (setting [4]) was 25 ± 4%. Take `CCOC(=O)C1=C(C)NC(c2ccccc2)=C(C(=O)OCCc2ccccc2)C1C#Cc1ccccc1` (racemic) [Compound 125, 3-Ethyl 5-phenylethyl 2-methyl-4-phenylethynyl-6-phenyl-1,4-(±)-dihydropyridine-3.5-dicarboxylate]: the inhibition at 100 µM on A2a receptors (setting [3]) and on A1 receptors (setting [6]) was less than 10% each time. Consider `CCOC(=O)C1=C(c2ccccc2)NC(C)=C(C(=O)OCC2COC(C)(C)O2)C1C#Cc1ccccc1` (stereo not drawn) [Compound 209a], for which the inhibition at 100 µM at A2a receptors (Table 14, read-out: displacement of specific binding rA2A) is less than 10%; at A1 receptors (Table 14, read-out: % inhibition rA1), 32 ± 4%. In the case of `CC(C)(C)OC(=O)Nc1nc2ccc(Cl)cc2c2nc(-c3ccco3)nn12` [Compound 150, 5-[(tert.-Butoxycarbonyl)amino]-9-chloro-2-(2-furyl)[1,2,4]triazolo[1,5-c]quinazoline], the Ki was 0.092 ± 0.008 µM on A2a receptors (Table 15, read-out: Ki rA2A) and 0.19 ± 0.016 µM at A1 receptors (Table 15). As for `C=CCOC(=O)C1=C(C)NC(c2ccccc2)=C(C(=O)OCC)C1/C=C/c1ccc([N+](=O)[O-])cc1` (stereo not drawn) [Compound 117], the inhibition at 100 µM was 15% at A2a receptors (setting [5]) and less than 10% on A1 receptors (setting [6]). On the same counts, the results for `CCOC(=O)C1=C(C)NC(c2ccccc2)=C(C(=O)OCc2cccc(C)c2)C1C#Cc1ccccc1` (racemic) [Compound 122b, 3-Ethyl 5-(3-methylbenzyl)-4-phenylethynyl-6-phenyl-1,4(±)-dihydropyridine-3.5-dicarboxylate] are 16 ± 2% and less than 10%. Turning to `CCCn1c(=O)n2nc(-c3ccco3)nc2c2cc(Cl)ccc21` [Compound 159, 9-Chloro-2-(2-furyl)[1,2,4]triazolo[1,5-c]quinazolin-6-propyl-5-one], the Ki at A1 receptors (Table 15) turned out to be 2 µM. With `COc1cc(OC)c2c(=O)c(OC)c(-c3ccccc3)oc2c1` [Compound 2, 3,5,7-Trimethoxyflavone], the Ki turned out to be 6.45 ± 1.48 µM at A2a receptors (Table 3, read-out: Ki rA2a) and 0.509 ± 0.049 µM on A1 receptors (Table 3).

Consider `CCOC(=O)C1=C(C)N(COC)C(c2ccccc2)=C(C(=O)OCC[Si](C)(C)C)C1C#Cc1ccccc1` (racemic) [Compound 137, 1-Methoxymethyl 3-ethyl 5-(2-trimethylsilyl)-ethyl 2-methyl-4-phenylethynyl-6-phenyl-1,4-(±)-dihydropyridine-3,5-dicarboxylate], for which the inhibition at 100 µM on A2a receptors (setting [5]) was 27 ± 4%; on A1 receptors (setting [6]), less than 10%. With `O=C1CC(c2ccccc2O)Oc2ccccc21` (stereo not drawn) [Compound 13, reference compound], the Ki at A2a receptors (Table 4, read-out: Ki rA2a) came out at 17.6 ± 2.1 µM; at A1 receptors (Table 4), 2.64 ± 0.56 µM. In the case of `CCOC(=O)C1=C(C)NC(c2ccccc2)=C(C(=O)OCC)C1/C=C/c1ccc([N+](=O)[O-])cc1` (stereo not drawn) [Compound 118], the inhibition at 100 µM on A2a receptors (setting [5]) stood at 26%; at A1 receptors (setting [4]), 31%.

For the molecule `CCOCN1C(C)=C(C(=O)OCC)C(C#Cc2ccccc2)C(C(=O)OCC[Si](C)(C)C)=C1c1ccccc1` (racemic) [Compound 138, 1-Ethoxymethyl 3-ethyl 5-(2-trimethylsilyl)-ethyl 2-methyl-4-phenylethynyl-6-phenyl-1,4-(±)-dihydropyridine-3,5-dicarboxylate], the results for the inhibition at 100 µM at A2a receptors (setting [5]) and at A1 receptors (setting [4]) were 19% and 13 ± 3%, respectively. With `CCOC(=O)C1=C(C)NC(c2ccccc2)=C(C(=O)OCc2cccc(I)c2)C1C#Cc1ccccc1` (stereo not drawn) [Compound 122e], the figures for the inhibition at 100 µM on A2a receptors (setting [5]) and on A1 receptors (setting [4]) were 19 ± 7% and 14%, respectively. Take `CCOC(=O)C1=C(c2ccccc2)NC(C)=C(C(=O)OC(C)(C)C)C1C#Cc1ccccc1` (racemic) [Compound 133, 3-t-Butyl 5-ethyl 2-methyl-4-phenylethynyl-6-phenyl-1,4-(±)-dihydropyridine-3,5-dicarboxylate]: on A2a receptors (setting [5]), the inhibition at 100 µM is 20 ± 2%. As to `CCOC(=O)C1=C(C)NC(C)=C(C(=O)OCc2ccccc2)C1/C=C/c1ccccc1` (stereo not drawn) [Compound 85], at A2a receptors (setting [1]), the inhibition at 100 µM is 14.4 ± 4%. Regarding `CCOC(=O)C1=C(C)NC(c2ccccc2)=C(C(=O)OCC)C1c1ccccn1` (racemic) [Compound 111, 3,5-Diethyl 2-methyl-4-(2-pyridyl)-6-phenyl-1,4-(±)-dihydropridine-3,5-dicarboxylate], the inhibition at 100 µM on A2a receptors (setting [5]) came to 25%. On to `COC(=O)C1=C(C)NC(C)=C([N+](=O)[O-])C1c1ccccc1C(F)(F)F` (stereo not drawn) [Compound 70, reference compound], for which the “greater affinity to A1 than A2a adenosine receptors” value on A1 receptors is recorded as “greater affinity to A1 adenosine receptors than A2a receptors”. `CCOC(=O)C1=C(C)NC(C)=C(C(=O)OC)C1C` (racemic) [Compound 52, 3-Methyl-5-ethyl 2,4,6-trimethyl-1,4(R,S)-dihydropyridine-3,5-dicarboxylate]: the Ki at A2a receptors (Table 9, read-out: Ki rA2A) is greater than 100 µM. Take `CCOC(=O)C1=C(C)NC(C)=C(C(=O)OC)C1CCc1ccccc1` (stereo not drawn) [Compound 74]: the Ki on A2a receptors (Table 9, read-out: Ki rA2A) is 6.71 ± 2.06 µM. Regarding `CCOC(=O)C1=C(C)NC(c2ccccc2)=C(C(=O)OCC)C1C=C(c1ccccc1)c1ccccc1` (stereo not drawn) [Compound 97], the Ki on A2a receptors (Table 11, read-out: Ki rA2A) was 8 µM.
